In assay [1] the test system is 2-oxocarboxylic acid reductase. Briefly: Relative rates of reduction of 2-oxocarboxylic acids, enzyme from P. vulgaris. It counts as biochemical, Proteus vulgaris. To be noted: rate for phenylpyruvate taken as 1. How it is done: In an electrochemical cell, 25 ml of a solution of 100 mM potassium phosphate buffer at pH 7.0, 4 mM methylviologen and 40 mM phenylpyruvate were reduced with 0.5 mg of 2-oxoacid reductase according to Example 3 at a voltage of -700 mV, against a standard calomel electrode. The current of 5.8 mA decreased sharply after 9 hours. According to HPLC analysis, the reaction solution contained 88% of the phenyllactic acid expected. The solution was acidified to pH 1.8 with dilute sulfuric acid and then extracted with ether. […] A pure commercial preparation of (2S)-sodium phenyllactate gave a value of -21.4°, measured under the same conditions. (R)-mandelic acid and (R)-2-hydroxy-4-methylpentanoate were prepared by a similar method.
3-Oxocarboxylic acids and hydroxyacetone are not reduced.

Assay [2] deals with 2-oxocarboxylic acid reductase. Kind of assay: Relative rates of reduction of 2-oxocarboxylic acids, enzyme from P. mirabilis. To be noted: for Relative rates (of reduction): P. mirabilis enzyme, rate for phenylpyruvate taken as 1. In kind it is biochemical, Proteus mirabilis.
The test system of assay [3] is 2-oxocarboxylic acid reductase. Kind of assay: Initial rates with increasing concentrations of oxidized methylviologen, P. mirabilis enzyme. Particulars: for Initial rate: P. mirabilis, 2-oxo-4-methylpentanoate, pH 7.0. In kind it is biochemical, Proteus mirabilis. As to the method:
(§1) In the presence of increasing concentrations of MV^++ and 0.15 mM MV^+, the initial rates show the following behavior:
(§2) (0.3 ml of 0.1M trisacetate buffer of pH 7.0, 2 μmole of 2-oxo-4-methylpentanoate, the same amount of enzyme in each case, 0.2 mM of reduced methylviologen and the concentrations of oxidized methylviologen stated in the table were incubated in a 2 mm cell.)

The test system of assay [4] is 2-oxocarboxylic acid reductase. Kind of assay: Initial rates with increasing concentrations of oxidized methylviologen, P. vulgaris enzyme. In kind it is biochemical, Proteus vulgaris. To be noted: 2-oxo-4-methylpentanoate, pH 7.0. As to the method:
as §1, §2

Assay [5] has as its system 2-oxocarboxylic acid reductase.

Experimental findings from patent US4622301A, “2-Oxocarboxylic acid reductase and its preparation” (BASF Aktiengesellschaft, priority 1983, dated 1986) are described below.

With `CC(C)(CO)C(=O)C(=O)O` [2-Oxopantoate], the “Relative rates (of reduction)” value in assay [1] is 0.04; in assay [2], 0.07.
Take `C[n+]1ccc(-c2cc[n+](C)cc2)cc1` [MV^++, methylviologen]: in assay [3], the “effect on the activity of the enzyme (in words)” value is on record as “can be increased”. Also, the Initial rate in assay [3] (MV++ 0.01 mM) is 18.1 U/ml; in assay [3] (MV++ 0.08 mM), 41.9 U/ml; in assay [3] (MV++ 0.16 mM) it was 46.0 U/ml; in assay [3] (MV++ 0.75 mM), 62.0 U/ml; in assay [4] (MV++ 0.01 mM), 13.3 U/ml; in assay [4] (MV++ 0.08 mM) it was 24.4 U/ml. Also, the Initial rate came to 31.3 U/ml in assay [4] (MV++ 0.16 mM) and 41.5 U/ml in assay [4] (MV++ 0.75 mM).
Consider `O=C(O)CN(CCN(CC(=O)O)CC(=O)O)CC(=O)O` [EDTA], for which, in assay [5], the “effect on the activity of the enzyme” value is “not affected”.
`CC(=O)CO` [Hydroxyacetone]: in assay [2], the “Reduction by the enzyme (in words)” value was “not reduced” and the “Relative rates (of reduction)” value was 0.
